Values quoted from earlier work, collected in patent publication US20090239822A1, “Process for the preparation of esters of diacerein with hyaluronic acid and pharmaceutical compositions containing such esters” (priority 2006, published 2009).

Conditions: rhein from the pro-drug diacerein

O=C(O)c1cc(O)c2c(c1)C(=O)c1cccc(O)c1C2=O [rhein]
concentration in the synovial liquid: 1 to 10 µM
